Assay [1] deals with T1, Hsp90α chaperone activity (Homo sapiens, UniProt P07900).
T1 construct: purchased Assay Designs (Ann Arbor, MI, USA)
Briefly: Citrate synthase thermal-induced aggregation assay (chaperone activity). The following applies: 0.075 µM CS, 0.075 µM Hsp90α, 0.3 µM ATP, four-fold molar excess (0.3 µM) compound, 43°C. The class given is biochemical. The procedure: Chaperone activity was evaluated by monitoring the thermal−induced aggregation of citrate synthase (CS) (0.075 µM), as reported elsewhere, in the absence or presence of a stoichiometric amount of Hsp90α and 0.3 µM ATP, and with or without a four−fold molar excess of each testing compound. Aggregation was initiated by unfolding CS incubating the protein in 40 mM HEPES–KOH, pH 7.5 at 43°C. Aggregation was monitored by measuring light scattering at right angles with the Perkin Elmer LS 55 fluorimeter in stirred and thermostatted quartz cells. Both the emission and excitation wavelengths were set at 500 nm, while the band–pass was 2 nm. Kinetics traces reported are the averages of two separate measurements.
Figure 3 Inhibition of Hsp90α activity. ATPase activity of the chaperone was evaluated in the presence of different concentrations of geraniin, 17-AAG and HA (A). Data are reported as the residual ATPase activity (%) compared to that observed for an untreated sample. Data are the mean of three independent experiments performed in triplicate and were analyzed by t test (HA vs testing compounds): The error bar represents the standard deviation of nine measurements, while * indicates significance at P<0.01. Aggregation kinetics of citrate synthase (CS) at 43°C determined by light scattering (B). […]

In the next assay the test system is Jurkat cells. The assay can be described thus: Cell cycle and hypodiploidy by flow cytometry (PI), Jurkat. In kind it is cell-based, human. The settings on record: 24 h, geraniin 0.7 µM, 17-AAG 10 µM. The procedure:
Cell DNA content was measured by propidium iodide (PI) incorporation into permeabilized cells, as described by Nicoletti et al.. Briefly, the cells were harvested after geraniin or 17-AAG treatments were washed with cold PBS and incubated with a PI solution (0.1% sodium citrate, 0.1% Triton X-100 and 50 µg mL^−1 of prodium iodide, Sigma-Aldrich, 10 µg/ml Rnase A) for 30 min at room temperature. Data from 10.000 events per sample were collected by a FACScalibur flow cytometer (Becton Dickinson, San José, CA) and cellular debris was excluded from analysis by raising the forward scatter threshold. The percentage of cells in the sub G0/G1 phase, apoptotic fraction, was quantified using CellQuest software (Becton Dickinson). The distribution of cells in G0/G1, S, G2/M phases was determined using ModFit LT cell cycle analysis software (Becton Dickinson). Results were expressed as a mean ± SD of three experiments performed in triplicate.
Figure 6 Effects of geraniin and 17-AAG on cell cycle progression. Percentage of cell cycle stages was analyzed by flow cytometry, (A) PI-stained viable Jurkat cells treated with DMSO, 0.7 µM geraniin or 10 µM 17-AAG for 24 h.
A general note: A flow cytometer gives signals particle by particle.

In a further assay the target is T2, recombinant Hsp90α (Homo sapiens, UniProt P07900).
T2 construct: purchased Assay Designs (Ann Arbor, MI, USA)
The assay can be described thus: Limited proteolysis-mass spectrometry of Hsp90α/geraniin complex. The following applies: trypsin or chymotrypsin, 5:1 molar excess of geraniin, 37°C. The procedure:
Limited proteolysis experiments were performed on recombinant Hsp90α at 37°C, PBS 0.1% DMSO, using trypsin or chymotrypsin as proteolytic agents; 30 µL of a 3 µM Hsp90α solution were used for each experiment. Binary complex Hsp90α/geraniin was formed by incubating the protein with a 5∶1 molar excess of geraniin at 37°C for 15 min prior to proteolytic enzyme addition. Both Hsp90 and Hsp90/geraniin complex were digested using a 1∶100 (w/w) enzyme to substrate ratio. The extent of the reactions was monitored on a time−course basis by sampling the incubation mixture after 5, 15, and 30 min of digestion. Samples were analyzed by MALDITOF/MS using a MALDI micro MX (Waters). Mass data were elaborated using the Masslynx software (Waters). Preferential hydrolysis sites on Hsp90α under different conditions were identified on the basis of the fragments released during enzymatic digestion.
In an effort to identify the Hsp90α region involved in geraniin binding, a limited proteolysis−mass spectrometry−based strategy was used for the structural analysis of the Hsp90α/geraniin complex. This approach is based on the evidence that exposed, weakly structured, and flexible regions of a protein can be recognized by a proteolytic enzyme, [30]. […]

A further assay concerns HeLa cells. The assay can be described thus: MTT cell viability, HeLa. In kind it is cell-based, human. The following applies: Homo sapiens, 24 h. The method, then: To ensure logarithmic growth, cells were subcultured every two days. As control cells, human peripheral blood mononuclear cells (PBMC) were isolated from buffy coats of healthy donors (kindly provided by the Blood Center of the Hospital of Battipaglia, Salerno, Italy) by using standard Ficoll−Hypaque gradients. […] Proliferation of PBMC was induced by phytohemagglutinin (PHA) (10 µg mL^−1). Tumor and PBMC cells were treated with different concentrations of geraniin or 17-AAG to evaluate their cytotoxic effects. Stock solutions of geraniin (50 mM in DMSO) and 17-AAG (10 mM in DMSO) were stored a −20°C in the dark and diluted just before addition to the sterile culture medium. In all the experiments, the final concentration of DMSO was 0.10% (v/v).
Jurkat (2×10^4/well) and HeLa (5000/well) cells were seeded in triplicate in 96 well−plates and incubated for 24 h in the absence or presence of different concentrations of geraniin (between 0,5 µM to 50 µM) or 17-AAG (between 0,5 nM to 10 µM).
The number of viable cells was determined by using a [3–4,5-dimethyldiazol-2-yl]-2,5-diphenyl tetrazolium bromide (MTT, Sigma-Aldrich) conversion assay, according to the method described by Mosmann. […] The absorbance was measured with a microplate reader (Titertek multiskan MCC7340, LabSystems, Vienna, VA, USA) equipped with a 620 nm filter. […]

As a reminder, the IC50 is the concentration needed to halve the response being measured. The low end stands for higher potency, the high end for lower potency.

Molecules are shown by their SMILES.

Regarding `O=C1O[C@H]2[C@@H]3OC(=O)c4cc(O)c(O)c(O)c4-c4c(cc(O)c(O)c4O)C(=O)OC[C@H]2O[C@@H](OC(=O)c2cc(O)c(O)c(O)c2)[C@@H]3OC(=O)c2cc(O)c(O)c3c2[C@@H]2C1=CC(=O)[C@](O)(O3)C2(O)O` [Compound 54, geraniin], in assay [1], the “effect on citrate synthase aggregation kinetics in the presence of Hsp90α” value is on record as “the curve slope clearly increased”. In addition, in the assay with Jurkat cells, the cell cycle arrest result is “G2/M arrest” and the “percentage of cells with hypodiploid nuclei” value is 9.75±1.02%. Moreover, at recombinant Hsp90α, the “Hsp90α region involved in binding” value is “overall protection of the N−terminal region from proteolysis”. Further, the 50% inhibitory concentration (IC50) with HeLa cells was found to be 5.1 ± 0.2 µM.

(Values after PMC3774728, “Identification of the Plant Compound Geraniin as a Novel Hsp90 Inhibitor” (PLoS ONE, 2013).)
